In the SangsterLogP compilation one finds logP data, which are given here for 18 molecules.

SMILES strings stand for the structures.

A short description of this series: method code SF, from DOI: 10.1021/jf00070a034.

In turn, `C=CCNc1nc(Cl)nc(NCC=C)n1` yielded a logP of 2.75.

Consider `CCNc1nc(Cl)nc(NC2CC2)n1`, for which the log partition coefficient (logP) was 2.13. Molecule `O=C(Cc1ccccc1)Nc1ccccc1` registered a log partition coefficient (logP) of 2.72. Then `CCNc1nc(Cl)nc(NC2CCCCC2)n1`, with 3.63.

`CN(C)C(=O)Nc1cccc(CCc2ccccc2)c1` gave a log partition coefficient (logP) of 3.21. Consider `CN(C)C(=O)Nc1cccc(Cc2ccccc2)c1`, for which the lipophilicity (logP) stood at 2.83. Take `CCNc1nc(Cl)nc(NCC2CC2)n1`: the lipophilicity (logP) came to 2.85.

Molecule `CNC(=O)Nc1cccc(OC)c1` displayed a logP of 1.26. Under `CCCC(C)(C)C(=O)Nc1ccc(Cl)cc1` stands 3.83; under `CN(C)C(=O)Nc1ccc(Cl)cc1`, 2.01. The molecule `CCNc1nc(Cl)nc(NC2CCC2)n1` displayed a logP of 2.77. Then `CC(C)CNC(=O)Nc1ccc(Cl)c(Cl)c1`, with 4.48; and `CCCCCC(C)Nc1nc(Cl)nc(NCC)n1` (stereo not drawn), with 4.74; and `CC1(NC(=O)Nc2ccccc2)CCCCC1`, with 3.6. `O=C(Cc1ccccc1)Nc1ccc([N+](=O)[O-])cc1` showed a lipophilicity (logP) of 3.17. With `CCCc1ccc(NC(=O)N(C)C)cc1`, the logP worked out at 2.55. As for `C=CC(C)C(=O)Nc1ccc(Cl)c(Cl)c1` (stereo not drawn), the logP came to 3.49.

Molecule `CCCC(C)C(=O)Nc1ccc(C)c(Cl)c1` (stereo not drawn) yielded a log partition coefficient (logP) of 4.31.

As usually defined, the logP is a log measure of how a compound divides between an organic and an aqueous phase. Read a low logP as lower lipophilicity.
